# According to patent publication US9302991B2, “Arylamide derivatives as TTX-S blockers” (RaQualia Pharma Inc., priority 2010, dated 2016):
# How the values were obtained:
# human Nav1.3 channels = biological target: T1, human Nav1.3 channels (Homo sapiens, UniProt Q9NY46); assay: FRET assay, human Nav1.3 (EFS on FDSS); assay type: cell-based; conditions: HEK293 cells expressing human Nav1.3, read-out: IC50 against Nav1.3
# T1 construct: expressed in transfected cells; host or cells: HEK293
# Procedure, shortened: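 HEK293 cells expressing the channel, loaded with 10 microM CC2-DMPE then 15 microM DiSBAC2(3) plus 0.555 mM VABSC-1 in pH 7.4 HEPES buffer at room temperature. Membrane potential changes evoked by electrical field stimulation after compound addition; IC50 from 440 nm-normalized FRET ratios.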
# human Nav1.7 channels = biological target: T2, human Nav1.7 channels (Homo sapiens, UniProt Q15858); assay: FRET assay, human Nav1.7 (EFS on FDSS); assay type: cell-based; conditions: CHO cells expressing human Nav1.7, read-out: IC50 against Nav1.7
# T2 construct: expressed in transfected cells; host or cells: CHO
# T2 sequence (Q15858 whole entry): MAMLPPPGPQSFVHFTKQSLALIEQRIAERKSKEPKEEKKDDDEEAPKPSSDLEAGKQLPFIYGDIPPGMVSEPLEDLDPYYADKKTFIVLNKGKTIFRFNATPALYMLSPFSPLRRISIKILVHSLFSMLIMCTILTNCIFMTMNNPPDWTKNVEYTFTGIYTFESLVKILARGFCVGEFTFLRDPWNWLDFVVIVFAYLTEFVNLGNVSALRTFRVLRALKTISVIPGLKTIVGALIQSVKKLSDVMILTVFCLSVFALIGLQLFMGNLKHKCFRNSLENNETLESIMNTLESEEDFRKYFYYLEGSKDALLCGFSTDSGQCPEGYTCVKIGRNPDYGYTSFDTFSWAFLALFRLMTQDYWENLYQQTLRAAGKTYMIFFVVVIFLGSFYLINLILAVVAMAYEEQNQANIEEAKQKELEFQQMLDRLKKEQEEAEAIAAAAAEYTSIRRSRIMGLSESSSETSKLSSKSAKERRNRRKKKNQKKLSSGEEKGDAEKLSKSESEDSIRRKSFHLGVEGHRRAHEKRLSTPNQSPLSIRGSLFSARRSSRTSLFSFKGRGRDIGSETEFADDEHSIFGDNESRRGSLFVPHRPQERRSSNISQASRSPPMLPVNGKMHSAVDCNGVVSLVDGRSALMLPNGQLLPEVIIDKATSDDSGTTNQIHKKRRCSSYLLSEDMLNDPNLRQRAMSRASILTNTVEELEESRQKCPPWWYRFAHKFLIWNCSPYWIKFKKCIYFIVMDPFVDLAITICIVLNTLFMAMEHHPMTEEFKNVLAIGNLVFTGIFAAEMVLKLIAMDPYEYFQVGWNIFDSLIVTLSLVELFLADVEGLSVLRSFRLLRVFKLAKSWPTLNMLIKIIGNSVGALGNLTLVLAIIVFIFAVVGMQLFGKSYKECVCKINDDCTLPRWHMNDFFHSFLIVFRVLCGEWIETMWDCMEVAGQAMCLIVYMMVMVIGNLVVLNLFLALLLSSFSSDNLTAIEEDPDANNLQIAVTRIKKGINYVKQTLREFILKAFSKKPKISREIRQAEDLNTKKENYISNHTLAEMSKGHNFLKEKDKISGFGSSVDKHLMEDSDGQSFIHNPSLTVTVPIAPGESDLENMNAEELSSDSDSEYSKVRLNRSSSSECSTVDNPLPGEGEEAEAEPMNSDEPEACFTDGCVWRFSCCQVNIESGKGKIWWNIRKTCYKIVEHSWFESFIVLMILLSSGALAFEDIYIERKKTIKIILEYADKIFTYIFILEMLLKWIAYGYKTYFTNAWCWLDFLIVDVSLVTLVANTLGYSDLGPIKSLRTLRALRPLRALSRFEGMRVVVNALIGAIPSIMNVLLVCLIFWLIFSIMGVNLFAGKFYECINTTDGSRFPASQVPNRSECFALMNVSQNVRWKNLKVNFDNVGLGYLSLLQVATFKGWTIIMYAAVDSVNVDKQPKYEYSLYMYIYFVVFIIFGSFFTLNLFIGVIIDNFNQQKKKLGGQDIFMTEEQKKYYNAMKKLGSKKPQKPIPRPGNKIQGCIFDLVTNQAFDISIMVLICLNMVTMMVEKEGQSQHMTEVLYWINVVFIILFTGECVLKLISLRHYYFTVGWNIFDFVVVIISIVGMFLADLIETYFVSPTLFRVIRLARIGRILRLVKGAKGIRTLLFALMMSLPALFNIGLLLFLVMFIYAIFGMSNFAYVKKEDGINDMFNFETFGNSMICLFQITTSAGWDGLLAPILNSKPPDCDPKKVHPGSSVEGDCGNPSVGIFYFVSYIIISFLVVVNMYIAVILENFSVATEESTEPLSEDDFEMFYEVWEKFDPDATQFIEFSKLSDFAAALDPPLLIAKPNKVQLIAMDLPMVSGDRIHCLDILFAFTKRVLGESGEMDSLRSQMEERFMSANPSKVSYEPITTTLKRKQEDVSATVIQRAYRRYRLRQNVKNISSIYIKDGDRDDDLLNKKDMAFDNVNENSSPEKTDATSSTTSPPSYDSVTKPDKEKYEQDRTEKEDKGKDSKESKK
# Procedure, shortened: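 IC50 was derived from normalized 440 nm fluorescence ratios of the EFS-evoked membrane-potential response read on FDSS. Recombinant CHO cells were sequentially dye-loaded with coumarin/oxonol FRET pair at room temperature in pH 7.4 buffer before compound addition.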
# T1 sequence (Q9NY46 whole entry): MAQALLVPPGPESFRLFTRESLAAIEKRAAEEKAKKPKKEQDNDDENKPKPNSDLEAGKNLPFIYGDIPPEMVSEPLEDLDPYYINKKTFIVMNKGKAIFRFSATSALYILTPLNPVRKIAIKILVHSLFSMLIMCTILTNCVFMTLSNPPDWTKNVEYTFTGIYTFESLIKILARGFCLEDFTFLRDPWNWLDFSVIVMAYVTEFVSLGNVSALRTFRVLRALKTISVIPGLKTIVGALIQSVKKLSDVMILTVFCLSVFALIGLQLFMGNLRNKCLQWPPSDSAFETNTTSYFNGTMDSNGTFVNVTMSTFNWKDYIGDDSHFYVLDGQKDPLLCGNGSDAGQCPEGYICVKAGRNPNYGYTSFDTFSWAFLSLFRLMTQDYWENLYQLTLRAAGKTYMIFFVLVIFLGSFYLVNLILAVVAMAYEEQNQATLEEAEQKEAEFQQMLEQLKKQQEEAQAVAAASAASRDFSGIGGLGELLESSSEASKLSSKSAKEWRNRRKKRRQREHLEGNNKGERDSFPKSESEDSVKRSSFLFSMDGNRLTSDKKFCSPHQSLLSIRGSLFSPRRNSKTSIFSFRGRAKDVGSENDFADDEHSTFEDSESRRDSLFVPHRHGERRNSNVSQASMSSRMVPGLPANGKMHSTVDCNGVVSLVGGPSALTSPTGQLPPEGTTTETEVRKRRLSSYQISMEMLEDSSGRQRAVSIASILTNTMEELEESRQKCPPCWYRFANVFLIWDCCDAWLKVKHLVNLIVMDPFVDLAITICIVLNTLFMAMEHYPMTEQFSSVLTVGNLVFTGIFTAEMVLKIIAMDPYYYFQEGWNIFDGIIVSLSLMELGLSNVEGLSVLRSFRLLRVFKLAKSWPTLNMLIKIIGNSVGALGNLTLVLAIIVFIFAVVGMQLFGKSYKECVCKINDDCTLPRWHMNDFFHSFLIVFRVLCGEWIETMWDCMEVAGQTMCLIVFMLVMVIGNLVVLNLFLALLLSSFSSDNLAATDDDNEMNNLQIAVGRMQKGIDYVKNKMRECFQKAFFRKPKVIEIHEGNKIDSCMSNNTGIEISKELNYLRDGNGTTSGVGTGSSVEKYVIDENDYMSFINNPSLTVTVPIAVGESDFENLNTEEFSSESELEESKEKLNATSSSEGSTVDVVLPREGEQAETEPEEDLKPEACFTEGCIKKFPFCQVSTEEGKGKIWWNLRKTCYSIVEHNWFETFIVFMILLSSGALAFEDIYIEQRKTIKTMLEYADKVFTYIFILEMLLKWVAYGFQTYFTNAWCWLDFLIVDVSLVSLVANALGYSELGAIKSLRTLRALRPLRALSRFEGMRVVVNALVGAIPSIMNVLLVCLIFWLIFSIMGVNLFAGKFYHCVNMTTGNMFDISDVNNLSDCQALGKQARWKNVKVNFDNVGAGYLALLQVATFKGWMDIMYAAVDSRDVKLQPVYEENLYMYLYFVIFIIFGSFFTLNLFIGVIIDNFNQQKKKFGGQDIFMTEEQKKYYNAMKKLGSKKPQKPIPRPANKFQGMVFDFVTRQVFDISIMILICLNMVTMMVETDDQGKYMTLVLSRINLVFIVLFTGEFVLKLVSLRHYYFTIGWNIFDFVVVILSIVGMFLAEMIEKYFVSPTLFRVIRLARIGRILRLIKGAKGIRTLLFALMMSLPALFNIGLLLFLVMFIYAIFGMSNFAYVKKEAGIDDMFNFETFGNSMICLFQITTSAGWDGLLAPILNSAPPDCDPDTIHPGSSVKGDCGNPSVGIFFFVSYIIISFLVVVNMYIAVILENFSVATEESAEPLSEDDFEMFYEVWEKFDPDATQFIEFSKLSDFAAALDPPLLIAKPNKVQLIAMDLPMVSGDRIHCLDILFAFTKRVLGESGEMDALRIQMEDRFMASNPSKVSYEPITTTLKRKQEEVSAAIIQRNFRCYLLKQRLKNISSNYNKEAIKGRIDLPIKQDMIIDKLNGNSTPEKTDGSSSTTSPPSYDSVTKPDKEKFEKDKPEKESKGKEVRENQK
SMILES,IC50 (human Nav1.3 channels),IC50 (human Nav1.7 channels)
"COc1nc(OCC(F)(F)F)ccc1CNC(=O)c1cc(C)nc(NC(=O)C(C)C)c1 [Example 494, 2-isobutyramido-N-((2-methoxy-6-(2,2,2-trifluoroethoxy)pyridin-3-yl)methyl)-6-methylisonicotinamide]",< 1 µM,< 1 µM
"CC(=O)Nc1cc(C(=O)NCc2cnc(OCC(F)(F)F)c(Br)c2)ccn1 [Example 762, 2-acetamido-N-((5-bromo-6-(2,2,2-trifluoroethoxy)pyridin-3-yl)methyl)isonicotinamide]",< 1 µM,< 1 µM
"Cc1cc(C(=O)NC(C)c2cnc(OCC(F)(F)F)c(C)c2)cc(NC(=O)CC2CC2)n1 (single isomer, unassigned) [Example 953, 2-(2-cyclopropylacetamido)-6-methyl-N-(1-(5-methyl-6-(2,2,2-trifluoroethoxy)pyridin-3-yl)ethyl)isonicotinamide]",< 1 µM,< 1 µM
"Cc1cc(CNC(=O)c2ccnc(NC(=O)C3CC3)c2)ccc1OC(F)(F)F [Example 806, 2-(cyclopropanecarboxamido)-N-(3-methyl-4-(trifluoromethoxy)benzyl)isonicotinamide]",< 1 µM,< 1 µM
"CCC(=O)Nc1cc(C(=O)NCc2cc(C(F)(F)F)ccc2F)cc(C)n1 [Example 128, N-(2-fluoro-5-(trifluoromethyl)benzyl)-2-methyl-6-propionamidoisonicotinamide]",< 1 µM,< 1 µM
"Cc1cc(C(=O)NCc2cccc(OC(F)(F)F)c2)cc(NC(=O)C(C)C)n1 [Example 528, 2-isobutyramido-6-methyl-N-(3-(trifluoromethoxy)benzyl)isonicotinamide]",< 1 µM,< 1 µM
"Cc1cc(C(=O)NC(C)c2cnc(OCC(F)(F)F)c(C)c2)nc(NC(=O)C(C)C)n1 (single isomer, unassigned) [Example 229, 2-isobutyramido-6-methyl-N-(1-(5-methyl-6-(2,2,2-trifluoroethoxy)pyridin-3-yl)ethyl)pyrimidine-4-carboxamide]",< 1 µM,< 1 µM
"Cc1cc(C(C)NC(=O)c2ccnc(NC(=O)C3CC3)n2)cnc1OCC(F)(F)C(F)F (single isomer, unassigned) [Example 906, 2-(cyclopropanecarboxamido)-N-(1-(5-methyl-6-(2,2,3,3-tetrafluoropropoxy)pyridin-3-yl)ethyl)pyrimidine-4-carboxamide]",< 1 µM,< 1 µM
"CCC(=O)Nc1cc(C(=O)NC(C)c2cnc(OCC(F)(F)F)c(C)c2)cc(C)n1 (single isomer, unassigned) [Example 132, 2-methyl-N-(1-(5-methyl-6-(2,2,2-trifluoroethoxy)pyridin-3-yl)ethyl)-6-propionamidoisonicotinamide]",< 1 µM,< 1 µM
"CC(=O)Nc1cc(C(=O)NCc2cc(C)cc(OC(F)(F)F)c2)ccn1 [Example 597, 2-acetamido-N-(3-methyl-5-(trifluoromethoxy)benzyl)isonicotinamide]",< 1 µM,< 1 µM
"COc1c(CNC(=O)c2cc(C)nc(NC(=O)C(C)C)c2)cccc1C(F)(F)F [Example 880, 2-isobutyramido-N-(2-methoxy-3-(trifluoromethyl)benzyl)-6-methylisonicotinamide]",< 1 µM,< 1 µM
"COc1nc(OCC(F)(F)F)ccc1CNC(=O)c1cc(C)nc(NC(C)=O)c1 [Example 241, 2-acetamido-N-((2-methoxy-6-(2,2,2-trifluoroethoxy)pyridin-3-yl)methyl)-6-methylisonicotinamide]",< 1 µM,< 1 µM
"O=C(NCc1cnc(OCC(F)F)c(Cl)c1)c1ccnc(NC(=O)C2CC2)n1 [Example 707, N-((5-chloro-6-(2,2-difluoroethoxy)pyridin-3-yl)methyl)-2-(cyclopropanecarboxamido)pyrimidine-4-carboxamide]",< 1 µM,< 1 µM
"Cc1cc(C(=O)NCc2cnc(OCC(F)(F)F)c(C)c2)cc(NC(=O)C2CC2)n1 [Example 824, 2-(cyclopropanecarboxamido)-6-methyl-N-((5-methyl-6-(2,2,2-trifluoroethoxy)pyridin-3-yl)methyl)isonicotinamide]",< 1 µM,< 1 µM
"CCC(=O)Nc1cc(C(=O)NCc2cccc(OC(F)F)c2)cc(C)n1 [Example 129, N-(3-(difluoromethoxy)benzyl)-2-methyl-6-propionamidoisonicotinamide]",< 1 µM,< 1 µM

# Now from value to compound:
IC50 (human Nav1.3 channels),IC50 (human Nav1.7 channels),SMILES
< 1 µM,< 1 µM,"CCC(=O)Nc1cc(C(=O)NC(C)c2cnc(OCC(F)(F)F)c(Cl)c2)cc(C)n1 (single isomer, unassigned) [Example 130, N-(1-(5-chloro-6-(2,2,2-trifluoroethoxy)pyridin-3-yl)ethyl)-2-methyl-6-propionamidoisonicotinamide]"
< 1 µM,< 1 µM,"CC(=O)Nc1cc(C(=O)NCc2cccc(OC(F)(F)F)c2F)cc(C)n1 [Example 751, 2-acetamido-N-(2-fluoro-3-(trifluoromethoxy)benzyl)-6-methylisonicotinamide]"
< 1 µM,< 1 µM,"CC(NC(=O)c1ccnc(NC(=O)C2CC2)n1)c1ccc(OCC(F)(F)F)c(Cl)c1 (single isomer, unassigned) [Example 680, N-(1-(3-chloro-4-(2,2,2-trifluoroethoxy)phenyl)ethyl)-2-(cyclopropanecarboxamido)pyrimidine-4-carboxamide]"
< 1 µM,< 1 µM,"CC(C)C(=O)Nc1cc(C(=O)NC(C)c2ccc(OCC(F)(F)F)nc2)ccn1 (single isomer, unassigned) [Example 8, 2-isobutyramido-N-(1-(6-(2,2,2-trifluoroethoxy)pyridin-3-yl)ethyl)isonicotinamide]"
< 1 µM,< 1 µM,"CC(C)C(=O)Nc1cc(C(=O)NCc2cccc(OC(F)(F)F)c2)ccn1 [Example 527, 2-isobutyramido-N-(3-(trifluoromethoxy)benzyl)isonicotinamide]"
< 1 µM,< 1 µM,"CCC(=O)Nc1cc(C(=O)NCc2cccc(OC(F)(F)F)c2)cc(C)n1 [Example 526, 2-methyl-6-propionamido-N-(3-(trifluoromethoxy)benzyl)isonicotinamide]"
< 1 µM,< 1 µM,"Cc1cc(CNC(=O)c2ccnc(NC(=O)C(C)C)c2)ccc1OCC(F)(F)F [Example 791, 2-isobutyramido-N-(3-methyl-4-(2,2,2-trifluoroethoxy)benzyl)isonicotinamide]"
< 1 µM,< 1 µM,"O=C(NCc1cccc(OC(F)(F)F)c1)c1ccnc(NC(=O)C2CC2)c1 [Example 524, 2-(cyclopropanecarboxamido)-N-(3-(trifluoromethoxy)benzyl)isonicotinamide]"
< 1 µM,< 1 µM,"Cc1cc(CNC(=O)c2ccnc(NC(=O)C(C)C)c2)ccc1OC(F)(F)F [Example 807, 2-isobutyramido-N-(3-methyl-4-(trifluoromethoxy)benzyl)isonicotinamide]"
< 1 µM,< 1 µM,"Cc1cc(C(=O)NCc2cnc(OCC(F)(F)C(F)F)c(C)c2)cc(NC(=O)C(C)C)n1 [Example 945, 2-isobutyramido-6-methyl-N-((5-methyl-6-(2,2,3,3-tetrafluoropropoxy)pyridin-3-yl)methyl)isonicotinamide]"
